Laboratory results taken from ChEMBL document CHEMBL3885881, “DrugMatrix”.

Species on record: Rattus norvegicus
Experiment: DrugMatrix - Regimen: Daily Repeat
Type: toxicity, organism-based, Sprague-Dawley
Design: regimen Daily Repeat, gender Male, age 6-8 weeks
Settings: in vivo, po, route oral GAVAGE, vehicle .5 % CMC; for ABSOLUTE BASOPHIL / ABSOLUTE EOSINOPHIL / ABSOLUTE LYMPHOCYTE / ABSOLUTE MONOCYTE / ABSOLUTE SEGMENTED NEUTROPHIL / BASOPHIL / EOSINOPHIL / ERYTHROCYTE COUNT / HEMATOCRIT / HEMOGLOBIN / LEUKOCYTE COUNT / LYMPHOCYTE / MEAN CORPUSCULAR HEMOGLOBIN / MEAN CORPUSCULAR HEMOGLOBIN CONCENTRATION / MEAN CORPUSCULAR VOLUME / MONOCYTE / NEUTROPHIL / NUCLEATED RED BLOOD CELLS / PLATELET COUNT: tissue Blood; for ALANINE AMINOTRANSFERASE / ALBUMIN / ALKALINE PHOSPHATASE / ASPARTATE AMINOTRANSFERASE / BLOOD UREA NITROGEN / CARBON DIOXIDE / CHLORIDE / CHOLESTEROL / CREATINE PHOSPHOKINASE / CREATININE / GLUCOSE / LACTATE DEHYDROGENASE / LIPASE / PHOSPHORUS / POTASSIUM / SODIUM / TOTAL BILIRUBIN / TOTAL PROTEIN / URIC ACID: tissue Plasma
[1] = 0 mg/kg, 72 h, dose level Control, time 3 day
[2] = 0 mg/kg, 120 h, dose level Control, time 5 day
[3] = 15 mg/kg, 72 h, dose level Low, time 3 day

`CN1C(=O)CN=C(c2ccccc2)c2cc(Cl)ccc21` [DIAZEPAM] was tested, and the “ABSOLUTE BASOPHIL” value [1] was 0 CELLS/uL, the “ABSOLUTE EOSINOPHIL” value [1] was 0 CELLS/uL and the “ABSOLUTE LYMPHOCYTE” value [1] was 12269.67 CELLS/uL. The “ABSOLUTE MONOCYTE” value [1] was 160.33 CELLS/uL, the “ABSOLUTE SEGMENTED NEUTROPHIL” value [1] was 970 CELLS/uL and the BASOPHIL [1] was 0%. The EOSINOPHIL [1] was 0%, the “ERYTHROCYTE COUNT” value [1] was 5.76 x10E6/uL and the HEMATOCRIT [1] was 36.57%. The HEMOGLOBIN [1] was 14.22 G/DL, the “LEUKOCYTE COUNT” value [1] was 13.4 x10E3/uL and the LYMPHOCYTE [1] was 91.67%. The “MEAN CORPUSCULAR HEMOGLOBIN” value [1] was 24.67 pg, the “MEAN CORPUSCULAR HEMOGLOBIN CONCENTRATION” value [1] was 38.85 G/DL and the “MEAN CORPUSCULAR VOLUME” value [1] was 63.52 fL. For the same compound, the MONOCYTE [1] was 1.17%, the NEUTROPHIL [1] was 7.17% and the “NUCLEATED RED BLOOD CELLS” value [1] was 0.33 /100WBC. For the same compound, the “PLATELET COUNT” value [1] was 1250.83 x10E3/uL, the “ALANINE AMINOTRANSFERASE” value [1] was 49.17 u/L and the ALBUMIN [1] was 4.33 G/DL. For the same compound, the “ALKALINE PHOSPHATASE” value [1] was 378.5 u/L, the “ASPARTATE AMINOTRANSFERASE” value [1] was 82.17 u/L and the “BLOOD UREA NITROGEN” value [1] was 15 mg/dL. The “CARBON DIOXIDE” value [1] was 34.33 mmol/L, the CHLORIDE [1] was 99.17 MEQ/L and the CHOLESTEROL [1] was 71.17 mg/dL. For the same compound, the “CREATINE PHOSPHOKINASE” value [1] was 258.67 u/L, the CREATININE [1] was 0.18 mg/dL and the GLUCOSE [1] was 142.67 mg/dL. The “LACTATE DEHYDROGENASE” value [1] was 154.33 u/L, the LIPASE [1] was 9 u/L and the PHOSPHORUS [1] was 11.67 mg/dL. The POTASSIUM [1] was 7.13 MEQ/L, the SODIUM [1] was 142.22 MEQ/L and the “TOTAL BILIRUBIN” value [1] was 0.18 mg/dL. For the same compound, the “TOTAL PROTEIN” value [1] was 5.77 G/DL, the “URIC ACID” value [1] was 1.55 mg/dL and the “ABSOLUTE BASOPHIL” value [2] was 0 CELLS/uL. The “ABSOLUTE EOSINOPHIL” value [2] was 23.33 CELLS/uL, the “ABSOLUTE LYMPHOCYTE” value [2] was 14943.67 CELLS/uL and the “ABSOLUTE MONOCYTE” value [2] was 32 CELLS/uL. For the same compound, the “ABSOLUTE SEGMENTED NEUTROPHIL” value [2] was 1084.33 CELLS/uL, the BASOPHIL [2] was 0% and the EOSINOPHIL [2] was 0.17%. The “ERYTHROCYTE COUNT” value [2] was 5.71 x10E6/uL, the HEMATOCRIT [2] was 35.28% and the HEMOGLOBIN [2] was 14.27 G/DL. For the same compound, the “LEUKOCYTE COUNT” value [2] was 16.08 x10E3/uL, the LYMPHOCYTE [2] was 93% and the “MEAN CORPUSCULAR HEMOGLOBIN” value [2] was 25.02 pg. For the same compound, the “MEAN CORPUSCULAR HEMOGLOBIN CONCENTRATION” value [2] was 40.43 G/DL, the “MEAN CORPUSCULAR VOLUME” value [2] was 61.82 fL and the MONOCYTE [2] was 0.17%. For the same compound, the NEUTROPHIL [2] was 6.67%, the “NUCLEATED RED BLOOD CELLS” value [2] was 0.33 /100WBC and the “PLATELET COUNT” value [2] was 1274 x10E3/uL. For the same compound, the “ALANINE AMINOTRANSFERASE” value [2] was 54.17 u/L, the ALBUMIN [2] was 4.22 G/DL and the “ALKALINE PHOSPHATASE” value [2] was 373.17 u/L. The “ASPARTATE AMINOTRANSFERASE” value [2] was 81.83 u/L, the “BLOOD UREA NITROGEN” value [2] was 16.67 mg/dL and the “CARBON DIOXIDE” value [2] was 30.33 mmol/L. The CHLORIDE [2] was 99 MEQ/L, the CHOLESTEROL [2] was 71 mg/dL and the “CREATINE PHOSPHOKINASE” value [2] was 273.5 u/L. For the same compound, the CREATININE [2] was 0.22 mg/dL, the GLUCOSE [2] was 141.83 mg/dL and the “LACTATE DEHYDROGENASE” value [2] was 153.67 u/L. The LIPASE [2] was 10.33 u/L, the PHOSPHORUS [2] was 11.38 mg/dL and the POTASSIUM [2] was 7.08 MEQ/L. For the same compound, the SODIUM [2] was 142.75 MEQ/L, the “TOTAL BILIRUBIN” value [2] was 0.18 mg/dL and the “TOTAL PROTEIN” value [2] was 6.1 G/DL. For the same compound, the “URIC ACID” value [2] was 1.67 mg/dL, the “ABSOLUTE BASOPHIL” value [3] was 0 CELLS/uL and the “ABSOLUTE EOSINOPHIL” value [3] was 0 CELLS/uL. For the same compound, the “ABSOLUTE LYMPHOCYTE” value [3] was 12631.33 CELLS/uL, the “ABSOLUTE MONOCYTE” value [3] was 43.67 CELLS/uL and the “ABSOLUTE SEGMENTED NEUTROPHIL” value [3] was 1191.67 CELLS/uL. For the same compound, the BASOPHIL [3] was 0%, the EOSINOPHIL [3] was 0% and the “ERYTHROCYTE COUNT” value [3] was 5.07 x10E6/uL. The HEMATOCRIT [3] was 32.77%, the HEMOGLOBIN [3] was 13.23 G/DL and the “LEUKOCYTE COUNT” value [3] was 13.87 x10E3/uL. For the same compound, the LYMPHOCYTE [3] was 91%, the “MEAN CORPUSCULAR HEMOGLOBIN” value [3] was 26.23 pg and the “MEAN CORPUSCULAR HEMOGLOBIN CONCENTRATION” value [3] was 40.4 G/DL. For the same compound, the “MEAN CORPUSCULAR VOLUME” value [3] was 64.77 fL, the MONOCYTE [3] was 0.33% and the NEUTROPHIL [3] was 8.67%. The “NUCLEATED RED BLOOD CELLS” value [3] was 0 /100WBC, the “PLATELET COUNT” value [3] was 1275.67 x10E3/uL and the “ALANINE AMINOTRANSFERASE” value [3] was 54 u/L. For the same compound, the ALBUMIN [3] was 4.07 G/DL, the “ALKALINE PHOSPHATASE” value [3] was 332.67 u/L and the “ASPARTATE AMINOTRANSFERASE” value [3] was 79.33 u/L. For the same compound, the “BLOOD UREA NITROGEN” value [3] was 16.67 mg/dL, the “CARBON DIOXIDE” value [3] was 27 mmol/L and the CHLORIDE [3] was 101.67 MEQ/L. The CHOLESTEROL [3] was 72.67 mg/dL, the “CREATINE PHOSPHOKINASE” value [3] was 227.67 u/L and the CREATININE [3] was 0.25 mg/dL. The GLUCOSE [3] was 180 mg/dL, the “LACTATE DEHYDROGENASE” value [3] was 173.33 u/L and the LIPASE [3] was 9 u/L. It also gave a PHOSPHORUS [3] of 13.13 mg/dL, a POTASSIUM [3] of 7.43 MEQ/L and an SODIUM [3] of 143.37 MEQ/L. The “TOTAL BILIRUBIN” value [3] was 0.2 mg/dL, the “TOTAL PROTEIN” value [3] was 5.57 G/DL and the “URIC ACID” value [3] was 1.97 mg/dL.
